Laboratory results as given in the supplement of paper PMC10307832.

Legend:
Experiment in all cases: relative viability (nuclei count vs DMSO), 5 days (fraction); higher = more cells survive
[1] = compound: Cn1c(=O)n(-c2ccc(C(C)(C)C#N)cc2)c2c3cc(-c4cnc5ccccc5c4)ccc3ncc21 [Dactolisib] + COc1cccc2cc(-c3nc([C@H]4CC[C@H](C(=O)O)CC4)n4ncnc(N)c34)[nH]c12 [OSI-027] (partner 0.5 µM)
Outline: (§1)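 Medians of duplicate plates are given as relative viability. That measure is the nuclei count in treated wells divided by the count in vehicle wells. Counts were taken on 4× images of lung cancer cell lines in 1536-well plates, 5 days after pin-tool dosing the day after seeding with one drug alone or a fixed anchor-drug dose plus five library-drug doses (not always all listed) in √10 steps.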

[2] = compound: Cn1c(=O)n(-c2ccc(C(C)(C)C#N)cc2)c2c3cc(-c4cnc5ccccc5c4)ccc3ncc21 [Dactolisib] + NC(=O)Nc1cc(-c2cccc(F)c2)sc1C(=O)N[C@H]1CCCNC1 [AZD7762] (partner 0.2 µM)
Outline: as §1

[3] = compound: C1CCC(CC1)N(CCNCCC2=C3C(=C(C=C2)O)NC(=O)CO3)C(=O)CCNCCC4=CC(=C(C=C4)Cl)Cl [AZ505] + COc1cc2c(Oc3ccc(NC(=O)C4(C(=O)Nc5ccc(F)cc5)CC4)cc3F)ccnc2cc1OCCCN1CCOCC1 [Foretinib] (partner 0.25 µM)
Outline: as §1

[4] = compound: C1CCC(CC1)N(CCNCCC2=C3C(=C(C=C2)O)NC(=O)CO3)C(=O)CCNCCC4=CC(=C(C=C4)Cl)Cl [AZ505] + CS(=O)(=O)CCNCc1ccc(-c2ccc3ncnc(Nc4ccc(OCc5cccc(F)c5)c(Cl)c4)c3c2)o1 [Lapatinib] (partner 2 µM)
Outline: as §1

Row | Cell Line | relative viability ([1]; first compound 0.002 µM) | relative viability ([1]; first compound 0.006325 µM) | relative viability ([1]; first compound 0.02 µM) | relative viability ([1]; first compound 0.06325 µM) | relative viability ([1]; first compound 0.2 µM) | relative viability ([2]; first compound 0.002 µM) | relative viability ([2]; first compound 0.006325 µM) | relative viability ([2]; first compound 0.02 µM) | relative viability ([2]; first compound 0.06325 µM) | relative viability ([2]; first compound 0.2 µM) | relative viability ([3]; first compound 0.08 µM) | relative viability ([3]; first compound 0.253 µM) | relative viability ([3]; first compound 0.8 µM) | relative viability ([3]; first compound 2.53 µM) | relative viability ([3]; first compound 8 µM) | relative viability ([4]; first compound 0.08 µM) | relative viability ([4]; first compound 0.253 µM) | relative viability ([4]; first compound 0.8 µM) | relative viability ([4]; first compound 2.53 µM) | relative viability ([4]; first compound 8 µM)
1 | NCI-H322M | 0.542 | 0.56 | 0.562 | 0.535 | 0.515 | 0.524 | 0.547 | 0.424 | 0.425 | 0.408 | 0.889 | 1 | 0.952 | 0.946 | 1.1 | 0.535 | 0.539 | 0.611 | 0.475 | 0.576
2 | NCI-H358 | 0.805 | 0.683 | 0.585 | 0.254 | 0.173 | 0.474 | 0.545 | 0.559 | 0.445 | 0.188 | 0.573 | 0.732 | 0.629 | 0.549 | 0.59 | 0.408 | 0.474 | 0.416 | 0.371 | 0.435
3 | NCI-H460 | 0.829 | 0.661 | 0.615 | 0.119 | 0.153 | 0.588 | 0.662 | 0.614 | 0.379 | 0.115 | 0.976 | 1.01 | 0.982 | 1.03 | 0.966 | 0.874 | 1.1 | 0.877 | 0.922 | 1.07
4 | NCI-H596 | 0.694 | 0.653 | 0.692 | 0.399 | 0.315 | 1.21 | 1.03 | 0.946 | 0.774 | 0.396 | 0.746 | 0.897 | 0.805 | 0.897 | 0.731 | 0.977 | 0.94 | 0.885 | 0.876 | 1.05
5 | NCI-H647 | 0.734 | 0.863 | 0.499 | 0.144 | 0.184 | 0.36 | 0.337 | 0.276 | 0.159 | 0.111 | 1.22 | 1.37 | 0.963 | 1.19 | 1.12 | 1.03 | 1.11 | 1.01 | 1.03 | 1.17
6 | NCI-H650 | 0.509 | 0.518 | 0.641 | 0.592 | 0.372 | 1.04 | 1.07 | 0.9 | 0.79 | 0.469 | 1.01 | 1.14 | 1.06 | 1.08 | 1.01 | 0.849 | 0.925 | 1.18 | 1.06 | 1.06
7 | NCI-H727 | 0.519 | 0.435 | 0.538 | 0.47 | 0.4 |  | 0.519 | 0.468 | 0.47 | 0.45 | 0.998 | 0.861 | 0.856 |  | 0.993 | 0.702 | 0.765 | 0.743 | 0.66 | 0.781
8 | NCI-H838 | 0.424 | 0.477 | 0.317 | 0.252 | 0.274 | 0.845 | 0.908 | 0.843 | 0.709 | 0.633 | 0.983 | 1.01 | 0.994 | 0.965 | 1.01 | 0.941 | 0.8 | 0.893 | 0.894 | 0.903
9 | NCI-H1355 | 0.436 | 0.475 | 0.455 | 0.328 | 0.246 | 0.834 | 0.73 | 0.699 | 0.419 | 0.308 | 0.819 | 1.01 | 0.992 | 1 | 1.01 | 0.865 | 0.944 | 0.95 | 0.855 | 0.995
10 | NCI-H1395 | 0.666 | 0.646 | 0.709 | 0.647 | 0.521 | 0.375 | 0.373 | 0.391 | 0.373 | 0.355 | 0.978 | 0.943 | 0.899 | 0.999 | 1.07 | 0.949 | 0.952 | 0.911 | 1.08 | 0.992
11 | NCI-H1437 | 0.849 | 0.903 | 0.883 | 0.834 | 0.586 | 1.07 | 1.18 | 1.12 | 1.05 | 1.1 | 1.16 | 1.26 | 1.21 | 1.29 | 1.18 | 0.765 | 0.729 | 0.757 | 0.738 | 0.831
12 | NCI-H1651 | 0.783 | 0.665 | 0.639 | 0.421 | 0.323 | 0.443 | 0.483 | 0.318 | 0.28 | 0.179 | 0.771 | 0.843 | 0.804 | 0.603 | 0.84 | 0.781 | 0.709 | 0.833 | 0.784 | 0.796
13 | NCI-H1666 | 1.04 | 0.895 | 0.864 | 0.755 | 0.687 | 0.81 | 0.98 | 0.807 | 0.727 | 0.656 | 0.946 | 1.01 | 0.917 | 0.9 | 0.95 | 0.532 | 0.544 | 0.531 | 0.614 | 0.518
14 | NCI-H1734 | 0.561 | 0.594 | 0.562 | 0.313 | 0.247 | 0.542 | 0.428 | 0.447 | 0.146 | 0.131 | 0.785 | 0.811 | 0.754 | 0.751 | 0.829 | 0.991 | 1 | 1.02 | 1.01 | 1
15 | NCI-H1755 | 0.821 | 0.772 | 0.8 | 0.683 | 0.542 | 0.355 | 0.453 | 0.422 | 0.411 | 0.325 | 0.817 | 0.913 | 0.893 | 0.93 | 0.9 | 1.02 | 0.99 | 1.09 | 1.09 | 1.03
16 | NCI-H1793 | 0.317 | 0.26 | 0.257 | 0.212 | 0.157 | 0.44 | 0.361 | 0.38 | 0.246 | 0.11 | 0.627 | 0.735 | 0.758 |  | 0.572 | 0.541 | 0.524 | 1.04 | 0.75 | 0.889
17 | NCI-H1915 | 0.723 | 0.704 | 0.716 | 0.535 | 0.418 | 0.654 | 0.67 | 0.696 | 0.664 | 0.597 | 1.06 | 1.11 | 1 | 0.977 | 1.1 | 1.01 | 1.07 | 0.985 | 1.05 | 1.04
18 | NCI-H1944 | 0.467 | 0.418 | 0.418 | 0.281 | 0.195 | 0.374 | 0.47 | 0.401 | 0.24 | 0.195 | 0.875 | 0.903 | 0.938 | 0.806 | 0.761 | 0.811 | 0.8 | 0.9 | 0.76 | 0.759
19 | NCI-H1975 | 0.676 | 0.676 | 0.591 | 0.297 | 0.244 | 0.659 | 0.695 | 0.63 | 0.488 | 0.388 | 0.889 | 0.928 | 0.902 | 0.946 | 0.96 | 0.773 | 0.82 | 0.858 | 0.9 | 0.885
20 | NCI-H1993 | 0.596 | 0.496 | 0.615 | 0.469 | 0.589 | 0.735 | 0.507 | 0.53 | 0.335 | 0.387 | 0.764 | 0.702 | 0.731 | 0.846 | 0.963 | 0.838 | 0.764 | 0.871 | 0.782 | 0.941
21 | NCI-H2085 | 0.737 | 0.609 | 0.663 | 0.319 | 0.269 | 0.984 | 0.9 | 0.877 | 0.731 | 0.281 | 0.698 | 0.887 | 0.915 | 0.821 | 1.08 | 0.67 | 0.7 | 0.668 | 0.789 | 0.83
22 | NCI-H2087 | 1.05 | 0.572 | 0.53 | 0.43 | 0.252 | 1.24 | 1.35 | 1.67 | 0.707 | 0.597 | 1.12 | 1.02 | 0.997 | 1.14 | 1.21 | 0.856 | 1.01 | 0.983 | 1.31 | 0.958
23 | NCI-H2126 | 0.92 | 0.733 | 0.687 | 0.618 | 0.458 | 0.946 | 0.925 | 0.949 | 0.803 | 0.623 | 0.892 | 1.16 | 1.19 | 1.1 | 1.13 | 0.758 | 0.78 | 0.767 | 0.639 | 0.701
24 | NCI-H2170 | 0.763 | 0.639 | 0.689 | 0.543 | 0.37 | 0.806 | 0.88 | 0.753 | 0.382 | 0.244 | 1.05 | 1.07 | 0.994 | 1.03 | 0.934 | 0.269 | 0.278 | 0.24 | 0.263 | 0.275
25 | NCI-H2347 | 0.407 | 0.52 | 0.635 | 0.41 | 0.332 | 0.75 | 0.78 | 0.715 | 0.532 | 0.458 |  | 0.743 | 0.719 |  | 1.04 | 0.555 | 0.64 | 0.607 | 0.508 | 0.772
26 | NCI-H2405 | 0.67 | 0.652 | 0.685 | 0.543 | 0.464 | 0.773 | 0.768 | 0.674 | 0.48 | 0.253 | 0.755 | 0.776 | 0.746 | 0.767 | 0.746 | 0.741 | 0.766 | 0.773 | 0.822 | 0.893
27 | NCI-H3122 | 0.903 | 0.976 | 0.948 | 0.739 | 0.373 | 0.971 | 0.892 | 1 | 0.953 | 0.488 | 0.889 | 0.993 | 0.837 | 0.964 | 1.05 | 1.01 | 1.03 | 1.04 | 0.981 | 1.09
28 | PC-3 [JPC-3] | 0.862 | 0.86 | 0.72 | 0.851 | 0.768 | 0.841 | 0.788 | 0.685 | 0.666 | 0.353 | 0.945 | 0.936 | 0.923 | 0.991 | 1.04 | 0.456 | 0.455 | 0.476 | 0.426 | 0.495
29 | PC-14 | 0.863 | 0.755 | 0.662 | 0.2 | 0.0989 | 0.348 | 0.368 | 0.333 | 0.176 | 0.135 | 0.922 | 0.927 | 1.03 | 1.01 | 0.937 | 0.316 | 0.296 | 0.336 | 0.411 | 0.319
30 | RERF-LC-KJ | 0.699 | 0.604 | 0.585 | 0.397 | 0.433 | 1.02 | 0.922 | 0.818 | 0.572 | 0.489 | 0.906 | 0.829 | 0.8 | 0.46 | 0.863 | 0.767 | 0.923 | 0.846 | 0.87 | 0.795
